Assay results reported in ChEMBL document CHEMBL1201862, “PubChem BioAssay data set” (2004).
Activity calls are given as the source filed them.

How the values were obtained:
[1] = target: T1, High affinity choline transporter 1 (Homo sapiens, UniProt Q9GZV3); test: CHT inhibitors, dose response, cell-based, 10-point CRC, membrane potential dye (AID 588401); format: functional;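 also: membrane potential dye fluorescence of choline-evoked depolarization via CHT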
T1 sequence (Q9GZV3 whole entry): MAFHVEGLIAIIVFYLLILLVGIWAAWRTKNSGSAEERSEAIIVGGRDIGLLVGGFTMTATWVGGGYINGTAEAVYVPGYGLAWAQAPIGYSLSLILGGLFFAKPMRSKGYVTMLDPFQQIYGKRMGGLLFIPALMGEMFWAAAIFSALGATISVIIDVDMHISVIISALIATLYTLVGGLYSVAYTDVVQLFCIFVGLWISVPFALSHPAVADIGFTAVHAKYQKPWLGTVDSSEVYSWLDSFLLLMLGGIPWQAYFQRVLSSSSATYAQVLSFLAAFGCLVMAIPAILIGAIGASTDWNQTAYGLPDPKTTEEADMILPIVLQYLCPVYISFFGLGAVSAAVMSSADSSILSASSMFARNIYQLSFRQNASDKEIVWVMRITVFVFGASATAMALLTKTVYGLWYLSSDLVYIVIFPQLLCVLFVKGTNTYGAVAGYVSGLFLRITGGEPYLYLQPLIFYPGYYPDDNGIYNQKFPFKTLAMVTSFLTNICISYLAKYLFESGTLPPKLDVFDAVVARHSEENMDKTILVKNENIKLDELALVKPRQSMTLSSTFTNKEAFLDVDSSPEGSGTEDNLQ

[2] = target: T1, High affinity choline transporter 1; test: CHT inhibitors, dose response, cell-based, 5-point CRC, membrane potential dye (AID 504840); format: functional
[3] = target: T2, Probable nicotinate-nucleotide adenylyltransferase (Staphylococcus aureus (strain N315), UniProt P65502); format: functional, Staphylococcus aureus subsp. aureus N315; settings: read-out: IC50_Mean;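 as to IC50 Mean: confirmatory dose-response retesting of NadD inhibitor hits first found in an ultra-high-throughput screen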
T2 sequence (P65502 whole entry): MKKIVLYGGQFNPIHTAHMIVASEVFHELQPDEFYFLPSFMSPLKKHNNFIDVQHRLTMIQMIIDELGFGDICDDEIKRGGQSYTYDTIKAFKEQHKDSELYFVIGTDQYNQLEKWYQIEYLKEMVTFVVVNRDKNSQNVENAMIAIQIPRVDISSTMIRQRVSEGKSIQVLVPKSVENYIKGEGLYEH

[4] = target: T3, Small ubiquitin-related modifier 1 (Homo sapiens, UniProt P63165); test: inhibitors of SUMO1 partner interactions, dose response, biochemical, FRET (AID 624383); format: functional; settings: read-out: IC50_Mean
T3 sequence (P63165 whole entry): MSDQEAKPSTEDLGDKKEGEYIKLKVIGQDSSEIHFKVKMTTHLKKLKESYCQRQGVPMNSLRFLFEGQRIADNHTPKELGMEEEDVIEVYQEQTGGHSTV

[5] = target: T3, Small ubiquitin-related modifier 1; test: inhibitors of SUMO1 peptide binding, dose response, biochemical, fluorescence polarization, uHTS hits (AID 624382); format: functional; settings: read-out: IC50_Mean
[6] = target: T4, Polyadenylate-binding protein 1 (Homo sapiens, UniProt P11940); test: PABP1 MLLE–PAM2 binding inhibitor potency, dose response, biochemical, fluorescence polarization, FITC-PAM2 peptide (AID 602259); format: functional; settings: read-out: IC50_Mean
T4 sequence (P11940 whole entry): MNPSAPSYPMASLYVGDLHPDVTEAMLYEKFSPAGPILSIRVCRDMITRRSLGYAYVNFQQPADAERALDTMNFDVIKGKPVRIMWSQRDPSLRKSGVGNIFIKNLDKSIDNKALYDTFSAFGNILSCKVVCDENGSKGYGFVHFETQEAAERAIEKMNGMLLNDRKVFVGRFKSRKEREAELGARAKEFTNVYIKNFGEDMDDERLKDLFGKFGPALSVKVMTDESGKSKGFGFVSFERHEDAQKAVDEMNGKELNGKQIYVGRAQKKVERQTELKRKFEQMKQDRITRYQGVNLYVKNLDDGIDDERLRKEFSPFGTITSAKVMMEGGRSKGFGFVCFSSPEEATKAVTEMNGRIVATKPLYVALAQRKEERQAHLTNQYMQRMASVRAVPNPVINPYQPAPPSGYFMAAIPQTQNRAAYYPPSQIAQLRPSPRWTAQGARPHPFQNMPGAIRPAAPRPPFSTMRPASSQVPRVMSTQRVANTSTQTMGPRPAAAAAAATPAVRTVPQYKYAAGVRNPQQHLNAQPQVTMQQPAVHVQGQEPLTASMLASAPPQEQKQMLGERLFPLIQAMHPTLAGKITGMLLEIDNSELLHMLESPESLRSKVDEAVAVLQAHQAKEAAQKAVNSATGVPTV

[7] = target: T4, Polyadenylate-binding protein 1; test: PABP1 MLLE–PAM2 interaction inhibitors, dose response, miRNA deadenylation inhibitor project, biochemical, fluorescence polarization, Cy5-PAM2 peptide, secondary (AID 602260); format: functional; settings: read-out: IC50_Mean
[8] = target: T5, Small ubiquitin-related modifier 2 (Homo sapiens, UniProt P61956); test: SUMO2–SIM peptide binding inhibitors, dose response, selectivity assay for SUMO1 interaction inhibitor project, biochemical, fluorescence polarization, uHTS hits (AID 624385); format: functional; settings: read-out: IC50_Mean
T5 sequence (P61956 whole entry): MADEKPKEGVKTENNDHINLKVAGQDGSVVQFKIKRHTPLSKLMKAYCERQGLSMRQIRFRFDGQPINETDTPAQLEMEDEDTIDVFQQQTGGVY

[9] = target: T5, Small ubiquitin-related modifier 2; test: inhibitors of SUMO2 protein-protein interaction, dose response, selectivity assay for SUMO1 interaction inhibitor project, biochemical, FRET, human SUMO2, uHTS hits (AID 624384); format: functional; settings: read-out: IC50_Mean
[10] = target: T2, Probable nicotinate-nucleotide adenylyltransferase; format: functional, Staphylococcus aureus subsp. aureus N315
[11] = NIH-3T3 fibroblast cytotoxicity, dose response, cytotoxicity control, cell-based, fluorescence, Alamar Blue, secondary assay (AID 2327); format: functional;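 also: NIH-3T3 mouse fibroblasts cultured with fluconazole at 8 µg/mL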
[12] = target: Multidrug resistance protein CDR2 (Candida albicans (strain SC5314 / ATCC MYA-2876) (Yeast), UniProt P78595); test: CaCDR2 efflux pump inhibitors in yeast, dose response, S. cerevisiae AD1-8u, singleplex, Cherry Pick2 set (AID 623994); format: functional; settings: read-out: EC50_MICROM
Chain of Multidrug resistance protein CDR2 (P78595 whole entry): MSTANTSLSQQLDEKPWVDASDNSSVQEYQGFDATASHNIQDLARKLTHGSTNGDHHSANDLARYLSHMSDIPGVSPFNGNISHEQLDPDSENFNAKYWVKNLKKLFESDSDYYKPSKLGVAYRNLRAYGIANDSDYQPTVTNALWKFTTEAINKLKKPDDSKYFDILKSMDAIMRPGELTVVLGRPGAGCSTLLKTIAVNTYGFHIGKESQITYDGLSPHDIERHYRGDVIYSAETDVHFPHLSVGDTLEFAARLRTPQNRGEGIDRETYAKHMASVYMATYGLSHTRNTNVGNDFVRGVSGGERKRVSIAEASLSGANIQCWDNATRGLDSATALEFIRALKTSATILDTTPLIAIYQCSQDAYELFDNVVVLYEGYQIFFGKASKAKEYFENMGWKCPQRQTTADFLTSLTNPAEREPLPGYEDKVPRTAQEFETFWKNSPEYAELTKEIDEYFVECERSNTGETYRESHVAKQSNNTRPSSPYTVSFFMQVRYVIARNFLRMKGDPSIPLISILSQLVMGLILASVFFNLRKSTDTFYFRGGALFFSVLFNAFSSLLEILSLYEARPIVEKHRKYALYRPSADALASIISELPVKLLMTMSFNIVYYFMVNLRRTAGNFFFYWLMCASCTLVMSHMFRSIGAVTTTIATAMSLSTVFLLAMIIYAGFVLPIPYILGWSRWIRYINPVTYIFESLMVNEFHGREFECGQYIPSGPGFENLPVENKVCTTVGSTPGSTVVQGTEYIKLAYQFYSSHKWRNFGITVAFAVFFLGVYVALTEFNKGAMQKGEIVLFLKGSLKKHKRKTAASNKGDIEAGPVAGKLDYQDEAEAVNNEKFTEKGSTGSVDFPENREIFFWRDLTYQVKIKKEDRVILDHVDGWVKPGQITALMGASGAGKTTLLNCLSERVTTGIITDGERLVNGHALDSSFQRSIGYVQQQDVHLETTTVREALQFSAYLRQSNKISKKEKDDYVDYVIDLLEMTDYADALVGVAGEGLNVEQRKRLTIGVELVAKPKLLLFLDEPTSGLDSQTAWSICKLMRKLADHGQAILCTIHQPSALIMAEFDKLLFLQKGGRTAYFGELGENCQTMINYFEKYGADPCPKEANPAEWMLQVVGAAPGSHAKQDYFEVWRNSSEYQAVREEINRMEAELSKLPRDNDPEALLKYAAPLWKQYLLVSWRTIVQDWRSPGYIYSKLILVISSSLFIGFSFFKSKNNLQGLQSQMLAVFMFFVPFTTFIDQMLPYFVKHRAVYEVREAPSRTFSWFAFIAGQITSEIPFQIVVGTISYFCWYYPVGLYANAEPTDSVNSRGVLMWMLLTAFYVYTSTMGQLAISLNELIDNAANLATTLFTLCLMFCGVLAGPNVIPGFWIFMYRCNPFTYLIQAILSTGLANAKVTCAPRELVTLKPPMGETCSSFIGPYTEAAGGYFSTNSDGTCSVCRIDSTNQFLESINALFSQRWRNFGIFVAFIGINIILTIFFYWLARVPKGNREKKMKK

[13] = C. albicans growth with fluconazole, confirmation, fluorescence, retest (AID 2467); format: functional, cell-based
[14] = target: Photoreceptor-specific nuclear receptor (Homo sapiens, UniProt Q9Y5X4); format: functional, cell-based;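 also: CHO-S cells with Gal4-NCOR and VP16-NR2E3 two-hybrid luciferase reporter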
[15] = test system: HEK293; test: NOD1 signaling inhibitors, primary screen, cell-based, luminescence, uHTS (AID 1578); format: functional; settings: Homo sapiens
[16] = test system: HEK293; test: NOD2 signaling inhibitors in MDP-stimulated cells, cell-based, uHTS, luminescence (AID 2001); format: functional; settings: Homo sapiens
[17] = test system: HEK293; test: cells; format: functional, cell-based; settings: Homo sapiens
[18] = target: Nonstructural protein 1 (Influenza A virus, UniProt Q194T2); format: functional, Influenza A virus (A/California/07/2009(H1N1))
[19] = test system: HEK293; test: cells; format: functional, cell-based; settings: Homo sapiens; remark: listed apart in the source
[20] = target: T6, Heat shock factor protein 1 (Mus musculus, UniProt P38532); test: inhibition of MG132-induced HSE-luciferase signal, confirmation, cell-based, NIH3T3, luminescence, dose retest (AID 2382); format: functional;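 also: NIH3T3 fibroblasts with HSF1-driven luciferase reporter stressed by proteasome inhibitor MG132; luminescence from HSF1-driven luciferase expression after 8 hours of MG132 stress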
T6 sequence (P38532 whole entry): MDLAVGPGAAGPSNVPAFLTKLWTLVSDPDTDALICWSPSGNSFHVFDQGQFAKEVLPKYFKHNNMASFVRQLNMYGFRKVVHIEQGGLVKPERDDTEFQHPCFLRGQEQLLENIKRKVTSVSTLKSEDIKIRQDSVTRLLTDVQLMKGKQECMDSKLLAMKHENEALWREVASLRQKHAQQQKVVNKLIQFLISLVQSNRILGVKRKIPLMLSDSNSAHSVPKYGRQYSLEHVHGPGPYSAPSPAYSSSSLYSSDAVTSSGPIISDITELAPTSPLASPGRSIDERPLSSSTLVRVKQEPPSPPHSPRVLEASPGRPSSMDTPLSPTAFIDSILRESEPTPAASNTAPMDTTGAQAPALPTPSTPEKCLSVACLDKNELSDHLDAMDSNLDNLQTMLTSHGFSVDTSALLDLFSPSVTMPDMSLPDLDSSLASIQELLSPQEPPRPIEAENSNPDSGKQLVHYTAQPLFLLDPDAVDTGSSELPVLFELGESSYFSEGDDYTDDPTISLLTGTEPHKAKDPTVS

[21] = target: T7, Low molecular weight phosphotyrosine protein phosphatase (Homo sapiens, UniProt P24666); format: functional; settings: read-out: IC50_Mean
T7 sequence (P24666 whole entry): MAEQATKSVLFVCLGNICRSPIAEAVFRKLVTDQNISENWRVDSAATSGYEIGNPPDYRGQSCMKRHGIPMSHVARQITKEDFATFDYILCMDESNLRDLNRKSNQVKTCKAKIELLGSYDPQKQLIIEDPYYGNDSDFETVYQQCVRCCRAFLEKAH

[22] = target: T7, Low molecular weight phosphotyrosine protein phosphatase; format: functional; settings: read-out: IC50_Mean; remark: listed apart in the source
[23] = test system: HEK293; test: cells; settings: Homo sapiens
[24] = target: T8, Interleukin-8 (Homo sapiens, UniProt P10145); test: Dose Response confirmation of uHTS small molecule hits for cystic fibrosis induced NFkb Inhibitors in a PAF-induced IL8 counterscreen.; format: functional; settings: read-out: IC50_Mean
T8 sequence (P10145 whole entry): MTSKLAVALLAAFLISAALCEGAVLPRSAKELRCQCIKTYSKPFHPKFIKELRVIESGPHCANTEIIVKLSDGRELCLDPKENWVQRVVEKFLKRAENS

[25] = target: T8, Interleukin-8; test: Dose Response confirmation of uHTS small molecule hits for cystic fibrosis induced NFkb Inhibitors in a TNFa-induced IL8 counterscreen.; format: functional; settings: read-out: IC50_Mean
[26] = target: Kallikrein-7 (Homo sapiens, UniProt P49862); test: Fluorescence Intensity-based biochemical primary high throughput dose response assay to identify activators of kallikrein-7 (K7) zymogen.
[27] = test system: HEK293; test: cells; settings: Homo sapiens; remark: listed apart in the source
[28] = Fluorescence-based cell-based high throughput dose response assay for inhibitors of the interaction of nucleotide-binding oligomerization domain containing 2 (NOD2) and the receptor-interacting serine-threonine kinase 2 (RIPK2).; format: functional; settings: Homo sapiens
[29] = target: Protein Wnt-3a (Mus musculus, UniProt P27467); test: Wnt3a-driven reporter signaling inhibition, dose response, selectivity assay for Gli-SUFU antagonist project, Wnt-LIGHT cells, luminescence (AID 651570); format: functional; settings: read-out: IC50_Mean;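 also: Wnt-LIGHT reporter cells stimulated with conditioned medium from Wnt3a-producing cells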
Chain of Protein Wnt-3a (P27467 whole entry): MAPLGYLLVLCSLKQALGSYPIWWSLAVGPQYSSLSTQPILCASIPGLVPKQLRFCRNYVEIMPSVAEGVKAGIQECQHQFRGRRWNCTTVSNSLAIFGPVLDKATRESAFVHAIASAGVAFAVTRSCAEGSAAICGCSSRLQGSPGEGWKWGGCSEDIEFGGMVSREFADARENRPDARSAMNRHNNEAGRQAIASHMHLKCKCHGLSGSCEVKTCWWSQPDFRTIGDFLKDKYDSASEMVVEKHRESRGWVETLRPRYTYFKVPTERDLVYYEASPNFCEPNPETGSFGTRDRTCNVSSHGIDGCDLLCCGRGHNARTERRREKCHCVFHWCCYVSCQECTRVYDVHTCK

[30] = target: T9, ATP-dependent translocase ABCB1 (Homo sapiens, UniProt P08183); test: ABCG2 efflux pump inhibitor potency, dose response, Ig-MXP3 cells, JC-1, flow cytometry, set 2 (AID 504566); format: functional; settings: read-out: EC50_MICROM_;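 also: flow cytometry median green fluorescence of retained JC-1 dye; potency of efflux pump inhibition measured as rising substrate retention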
T9 sequence (P08183 whole entry): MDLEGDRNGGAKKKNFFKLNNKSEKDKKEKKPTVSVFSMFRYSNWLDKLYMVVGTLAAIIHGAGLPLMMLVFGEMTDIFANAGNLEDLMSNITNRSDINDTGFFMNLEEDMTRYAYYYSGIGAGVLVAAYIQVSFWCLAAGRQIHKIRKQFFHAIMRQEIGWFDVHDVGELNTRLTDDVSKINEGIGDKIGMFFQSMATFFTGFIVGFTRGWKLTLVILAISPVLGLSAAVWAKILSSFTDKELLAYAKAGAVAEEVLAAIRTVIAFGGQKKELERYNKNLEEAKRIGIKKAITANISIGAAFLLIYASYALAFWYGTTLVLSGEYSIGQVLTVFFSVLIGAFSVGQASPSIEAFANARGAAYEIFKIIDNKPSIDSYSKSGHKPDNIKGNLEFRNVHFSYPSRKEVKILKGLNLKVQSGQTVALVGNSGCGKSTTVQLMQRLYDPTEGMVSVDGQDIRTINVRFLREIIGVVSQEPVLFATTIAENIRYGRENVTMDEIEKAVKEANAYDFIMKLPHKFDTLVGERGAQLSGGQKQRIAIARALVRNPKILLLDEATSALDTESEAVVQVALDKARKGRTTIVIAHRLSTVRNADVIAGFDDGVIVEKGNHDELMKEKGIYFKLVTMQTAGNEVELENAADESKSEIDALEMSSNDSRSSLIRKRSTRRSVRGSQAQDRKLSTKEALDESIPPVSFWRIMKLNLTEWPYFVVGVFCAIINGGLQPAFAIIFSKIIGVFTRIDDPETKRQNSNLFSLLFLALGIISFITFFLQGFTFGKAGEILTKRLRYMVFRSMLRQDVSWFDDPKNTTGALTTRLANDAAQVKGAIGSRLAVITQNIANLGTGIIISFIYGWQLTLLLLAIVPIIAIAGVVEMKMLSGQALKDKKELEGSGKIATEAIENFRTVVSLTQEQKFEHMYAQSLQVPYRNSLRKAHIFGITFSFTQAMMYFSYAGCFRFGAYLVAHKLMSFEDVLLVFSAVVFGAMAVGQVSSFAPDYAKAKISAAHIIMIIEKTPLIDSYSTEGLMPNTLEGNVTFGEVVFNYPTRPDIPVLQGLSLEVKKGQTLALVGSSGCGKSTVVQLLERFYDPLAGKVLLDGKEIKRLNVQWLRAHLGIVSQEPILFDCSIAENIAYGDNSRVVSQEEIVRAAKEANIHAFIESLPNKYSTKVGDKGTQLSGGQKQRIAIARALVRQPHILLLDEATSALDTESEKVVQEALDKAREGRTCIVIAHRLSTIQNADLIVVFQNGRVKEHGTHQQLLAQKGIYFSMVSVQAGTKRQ

[31] = target: T9, ATP-dependent translocase ABCB1; test: ABCB1 efflux inhibitor potency, dose response, Jurkat-DNR cells, JC-1, flow cytometry, set 2 (AID 504569); format: functional; settings: read-out: EC50_MICROM_;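 also: potency of pump inhibitors that raise cellular JC-1 green fluorescence up to the nicardipine level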
[32] = intracellular Trypanosoma cruzi inhibitors in host cells – cell-based, plate reader, cherry-pick samples, set 3, dose response (AID 651818); format: functional;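 also: compounds incubated with infected cells for about four days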
[33] = NIH/3T3 fibroblast cytotoxicity, dose response, cytotoxicity control for T. cruzi growth inhibitor project, cell-based, cherry-pick samples, set 2 (AID 651817); format: functional; settings: NIH3T3
[34] = target: T10, Mitochondrial peptide methionine sulfoxide reductase (Bos taurus, UniProt P54149); format: functional;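 also: absorbance read-out, biochemical high-throughput dose-response screen for MsrA inhibitors, confirmatory; recombinant bovine MsrA coupled to E. coli TrxB with NADPH and selenocystamine; potency is for inhibitors of MsrA activity on DMSO substrate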
T10 sequence (P54149 whole entry): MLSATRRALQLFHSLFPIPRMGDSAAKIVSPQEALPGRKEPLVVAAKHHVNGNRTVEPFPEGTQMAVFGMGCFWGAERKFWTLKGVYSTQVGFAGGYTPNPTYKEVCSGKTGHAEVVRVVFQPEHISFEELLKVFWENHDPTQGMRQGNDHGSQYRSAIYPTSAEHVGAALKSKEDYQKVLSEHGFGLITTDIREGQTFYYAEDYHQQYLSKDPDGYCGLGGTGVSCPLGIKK

[35] = target: T11, Sentrin-specific protease 1 (Homo sapiens, UniProt Q9P0U3); test: Dose response confirmation of small molecule inhibitors of the catalytic domain of the SUMO protease, SENP1 in a FRET assay.; format: functional; settings: read-out: IC50_Mean
T11 sequence (Q9P0U3 whole entry, the tested form may be a part): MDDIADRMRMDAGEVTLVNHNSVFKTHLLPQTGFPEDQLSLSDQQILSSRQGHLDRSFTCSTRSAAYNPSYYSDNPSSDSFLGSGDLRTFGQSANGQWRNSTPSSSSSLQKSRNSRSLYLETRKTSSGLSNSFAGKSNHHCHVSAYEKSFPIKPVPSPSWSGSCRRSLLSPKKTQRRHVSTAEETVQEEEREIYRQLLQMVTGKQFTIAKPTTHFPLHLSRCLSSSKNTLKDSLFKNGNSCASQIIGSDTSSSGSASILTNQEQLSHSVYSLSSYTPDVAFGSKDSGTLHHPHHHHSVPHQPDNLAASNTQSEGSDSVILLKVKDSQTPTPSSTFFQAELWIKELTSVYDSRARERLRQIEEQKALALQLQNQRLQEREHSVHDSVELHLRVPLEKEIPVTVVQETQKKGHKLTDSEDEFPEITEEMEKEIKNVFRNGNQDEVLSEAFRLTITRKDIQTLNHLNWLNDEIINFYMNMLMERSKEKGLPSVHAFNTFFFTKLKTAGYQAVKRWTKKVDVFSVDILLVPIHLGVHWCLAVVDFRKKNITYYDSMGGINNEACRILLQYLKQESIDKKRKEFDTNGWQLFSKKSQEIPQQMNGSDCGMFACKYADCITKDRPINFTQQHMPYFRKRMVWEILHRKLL

[36] = target: T11, Sentrin-specific protease 1; test: potency of human SENP1 inhibitors, dose response, biochemical, kinetic FRET (AID 651697); format: functional; settings: read-out: IC50_Mean

SMILES: CCCCn1nc2cc(C(=O)N[C@H](C)C3CCCCC3)ccc2c1OCC
- IC50 [1]: 4.47 µM (active)
- IC50 [2]: 7.76 µM (active)

SMILES: O=C(Nc1ccc2nc(-c3ccco3)c(-c3ccco3)nc2c1)N1CCN(c2ccccn2)CC1
- IC50 [3]: 19.7 µM (active)
- IC50 [4]: 51.7 µM (inactive)
- IC50 [5]: 6.94 µM (active)
- IC50 [6]: > 66 µM (inactive)
- IC50 [7]: > 66 µM (inactive)
- IC50 [8]: 8.13 µM (active)
- IC50 [9]: 24.6 µM (inactive)
- IC50 [10]: 8.98 µM (active)

SMILES: CCC(=O)N1CCN(c2ccc(Cl)cc2NC(=O)c2ccc3c(c2)OCCO3)CC1
- EC50 [11]: 117 µM (active)
- EC50 [12]: 32.1 µM (active)
- EC50 [13]: 3.35 µM (active)

SMILES: CCOc1ccc(-c2nc(CSCC(=O)N3CCN(c4cccc(OC)c4)CC3)c(C)o2)cc1
- IC50 [14]: 4 µM (active)
- EC50 [15]: 5.87 µM (active)
- IC50 [16]: 5.09 µM (active)
- IC50 [17]: 4.42 µM (active)
- IC50 [18]: > 100 µM (active)
- IC50 [19]: 8.52 µM (active)
- EC50 [20]: 48 µM (active)

SMILES: O=C(CCCOc1ccc(Cl)cc1Cl)NNC(=O)c1ccc(NC(=O)c2ccccc2)cc1
- IC50 [21]: 8.44 µM (active)
- IC50 [22]: 11.2 µM (active)

SMILES: O=C(NCCc1ccccc1)c1coc(=O)c(Br)c1
- EC50 [23]: > 59.6 µM (inactive)
- IC50 [24]: 0.987 µM (active)
- IC50 [25]: 0.684 µM (active)
- EC50 [26]: 16.5 µM (inactive)
- EC50 [27]: > 59.6 µM (inactive)

SMILES: C=CC(=O)N1C/C(=C/c2ccccc2)C(=O)/C(=C\c2ccccc2)C1
- IC50 [28]: 3.66 µM (active)

SMILES: C=CCNC(=S)/N=c1/ccccn1Cc1ccccc1
- IC50 [29]: 40.8 µM (inactive)

SMILES: O=C(c1ccco1)N1CCN(c2cc(-c3ccccc3)nc3cc(-c4cccc(F)c4)nn23)CC1
- EC50 [30]: 1.05 µM (active)
- EC50 [31]: 3.4 µM (active)

SMILES: C[C@H]1CN([C@@H](C)CO)C(=O)c2cccc(NC(=O)c3nc4ccccc4s3)c2O[C@H]1CN(C)S(=O)(=O)c1ccccc1
- AC50 [32]: 2.55 µM (active)
- AC50 [33]: 39 µM (inactive)

SMILES: C/C(CCC(C)C)=N\Nc1ccc(S(N)(=O)=O)cc1[N+](=O)[O-]
- IC50 [34]: 155 µM (inactive)

SMILES: O=C(O)c1ccc(N/N=C/c2cccc3nccnc23)cc1
- IC50 [35]: 8.97 µM (active)
- IC50 [36]: 15.1 µM (active)
